Reference: ChEMBL document CHEMBL1139814, “Conformationally restricted homotryptamines. Part 4: Heterocyclic and naphthyl analogs of a potent selective serotonin reuptake inhibitor” (Bioorg Med Chem Lett, 2007)

Key:
[1] = target: Sodium-dependent serotonin transporter (Homo sapiens, UniProt P31645); experiment: Inhibition of human SERT
[2] = target: T1, Sodium-dependent noradrenaline transporter (Homo sapiens, UniProt P23975); experiment: Inhibition of NET at 1 uM
[3] = target: T2, Sodium-dependent dopamine transporter (Homo sapiens, UniProt Q01959); experiment: Inhibition of DAT at 1 uM
T2 sequence (Q01959 whole entry): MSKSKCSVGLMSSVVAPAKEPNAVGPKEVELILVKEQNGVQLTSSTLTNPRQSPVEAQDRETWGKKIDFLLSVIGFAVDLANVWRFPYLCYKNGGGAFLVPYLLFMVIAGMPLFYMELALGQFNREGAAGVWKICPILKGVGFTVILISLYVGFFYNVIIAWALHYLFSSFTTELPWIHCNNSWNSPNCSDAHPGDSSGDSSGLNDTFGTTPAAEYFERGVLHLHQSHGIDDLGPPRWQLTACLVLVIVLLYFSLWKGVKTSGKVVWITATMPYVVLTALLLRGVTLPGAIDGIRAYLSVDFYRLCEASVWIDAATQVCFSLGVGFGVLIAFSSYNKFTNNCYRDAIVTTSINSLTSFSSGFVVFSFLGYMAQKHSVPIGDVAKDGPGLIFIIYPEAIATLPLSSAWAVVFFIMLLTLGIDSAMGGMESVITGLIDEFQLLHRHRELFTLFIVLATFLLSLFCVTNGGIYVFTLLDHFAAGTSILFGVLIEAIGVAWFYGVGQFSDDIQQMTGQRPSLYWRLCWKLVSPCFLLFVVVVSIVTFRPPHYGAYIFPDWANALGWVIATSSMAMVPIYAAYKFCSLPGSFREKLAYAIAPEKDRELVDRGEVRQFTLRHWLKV

[4] = target: T1, Sodium-dependent noradrenaline transporter; experiment: Inhibition of NET
[5] = target: T2, Sodium-dependent dopamine transporter; experiment: Inhibition of DAT

T1 sequence (P23975 whole entry): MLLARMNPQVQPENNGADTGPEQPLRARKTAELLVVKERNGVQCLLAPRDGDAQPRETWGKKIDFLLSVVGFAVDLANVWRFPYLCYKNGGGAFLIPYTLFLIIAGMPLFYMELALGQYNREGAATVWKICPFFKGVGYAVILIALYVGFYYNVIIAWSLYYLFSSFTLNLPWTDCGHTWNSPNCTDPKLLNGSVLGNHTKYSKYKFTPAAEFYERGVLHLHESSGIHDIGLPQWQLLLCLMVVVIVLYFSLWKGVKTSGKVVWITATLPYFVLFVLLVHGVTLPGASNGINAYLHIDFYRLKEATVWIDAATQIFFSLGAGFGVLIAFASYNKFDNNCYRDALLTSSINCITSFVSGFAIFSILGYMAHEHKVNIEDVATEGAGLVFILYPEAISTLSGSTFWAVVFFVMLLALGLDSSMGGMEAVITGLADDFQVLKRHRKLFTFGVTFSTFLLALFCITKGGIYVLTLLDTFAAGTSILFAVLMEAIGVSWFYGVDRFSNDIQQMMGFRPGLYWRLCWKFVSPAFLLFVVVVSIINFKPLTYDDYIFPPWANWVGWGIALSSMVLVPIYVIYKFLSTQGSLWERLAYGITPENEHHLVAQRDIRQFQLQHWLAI
Sodium-dependent serotonin transporter, sequence (P31645 whole entry): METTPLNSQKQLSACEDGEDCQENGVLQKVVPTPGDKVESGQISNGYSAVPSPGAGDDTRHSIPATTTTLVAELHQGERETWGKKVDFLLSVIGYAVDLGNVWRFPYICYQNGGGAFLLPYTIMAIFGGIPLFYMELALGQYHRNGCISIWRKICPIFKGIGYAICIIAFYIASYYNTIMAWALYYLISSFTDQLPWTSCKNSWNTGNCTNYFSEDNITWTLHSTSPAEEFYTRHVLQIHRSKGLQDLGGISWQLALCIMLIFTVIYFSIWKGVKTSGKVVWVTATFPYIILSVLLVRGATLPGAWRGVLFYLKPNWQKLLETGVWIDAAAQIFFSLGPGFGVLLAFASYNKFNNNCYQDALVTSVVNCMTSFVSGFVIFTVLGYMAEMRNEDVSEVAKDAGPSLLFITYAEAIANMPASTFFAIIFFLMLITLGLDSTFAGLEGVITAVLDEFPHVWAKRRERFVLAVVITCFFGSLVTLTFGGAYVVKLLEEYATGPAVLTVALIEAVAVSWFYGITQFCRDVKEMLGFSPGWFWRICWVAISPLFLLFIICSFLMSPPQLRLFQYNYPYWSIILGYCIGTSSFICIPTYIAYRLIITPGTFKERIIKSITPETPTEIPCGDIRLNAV

Row | IC50 [1] | inhibition [2] | inhibition [3] | IC50 [4] | IC50 [5] | SMILES
1 | 5.9 nM | 82% | 80% |  |  | CN(C)CC1CC1c1ccc2cc(C#N)c(C#N)cc2c1 (stereo unspecified)
2 | 55 nM |  |  |  |  | CN(C)CC1CC1c1csc2ccccc12 (stereo in doubt; (+)-6) [listing 1 of 2 here]
3 | 130 nM |  |  |  |  | CN(C)CC1CC1c1cnc2ccccc2c1 (stereo unspecified)
4 | 120 nM |  |  |  |  | CCN(CC)CC1CC1c1cccc2ccccc12 (stereo unspecified)
5 | 18 nM |  |  | 68000 nM | 33000 nM | CN(C)CC1CC1c1cccc2ccccc12 (single isomer, unassigned; (+)) [listing 1 of 2 here]
6 |  | 18% | 31% |  |  | CN(C)CC1CC1c1ccc2ccccc2c1 (single isomer, unassigned; (+)) [listing 1 of 2 here]
7 | 4.1 nM | 20% | 16% | 19000 nM | 8700 nM | CN(C)CC1CC1c1cccc2cc(C#N)ccc12 (stereo unspecified)
8 |  | 2.3% | 12% |  |  | CN(C)CC1CC1c1cccc2ccccc12 (single isomer, unassigned; (+)) [listing 2 of 2 here]
9 | 89 nM |  |  |  |  | CNCC1CC1c1cccc2ccccc12 (stereo unspecified)
10 | 48 nM | 25% | 9.5% | 39000 nM | 12000 nM | CN(C)CC1CC1c1cccc2c(C#N)cccc12 (stereo unspecified)
11 | 83 nM | 68% | 83% | 710 nM | 260 nM | CN(C)CC1CC1c1ccc2ccc(C#N)cc2c1 (racemic)
12 | 25 nM |  |  |  |  | CN(C)CC1CC1c1csc2ccccc12 (stereo in doubt; 6)
13 | 37 nM |  |  |  |  | CCNCC1CC1c1cccc2cc(C#N)ccc12 (stereo unspecified)
14 | 140 nM |  |  |  |  | CN(C)CC1CC1c1ccc2ccccc2c1 (single isomer, unassigned; (-))
15 | 58 nM |  |  |  |  | CCN(C)CC1CC1c1cccc2ccccc12 (stereo unspecified)
16 | 8.6 nM |  |  | 8700 nM | 2400 nM | CN(C)CC1CC1c1ccc2ccccc2c1 (single isomer, unassigned; (+)) [listing 2 of 2 here]
17 | 67 nM |  |  |  |  | CCN(CC)CC1CC1c1cccc2cc(C#N)ccc12 (stereo unspecified)
18 |  | 13% | 24% |  |  | CN(C)CC1CC1c1csc2ccccc12 (stereo in doubt; (+)-6) [listing 2 of 2 here]
19 | 170 nM |  |  |  |  | CN(C)CC1CC1c1cccc2ccccc12 (single isomer, unassigned; (-))
20 | 150 nM |  |  |  |  | CN(C)CC1CC1c1csc2ccccc12 (stereo in doubt; (-)-6)
21 | 550 nM |  |  |  |  | CCN(CC)CC1CC1c1ccc2ccccc2c1 (stereo unspecified)
22 | 16 nM |  |  |  |  | CN(Cc1ccccc1)CC1CC1c1cccc2cc(C#N)ccc12 (stereo unspecified)
23 | 310 nM |  |  |  |  | CCN(C)CC1CC1c1ccc2ccccc2c1 (stereo unspecified)
24 | 51 nM |  |  |  |  | N#Cc1ccc2c(C3CC3CN3CCCC3)cccc2c1 (stereo unspecified)
25 | 8.6 nM |  |  |  |  | CN(C)CC1CC1c1ccc2ccccc2c1 (stereo in doubt; 10b)
26 | 17 nM |  |  |  |  | CNCC1CC1c1cccc2cc(C#N)ccc12 (stereo unspecified)
27 | 13 nM | 69% | 41% | 560 nM | 1100 nM | CN(C)CC1CC1c1ccc2cc(C#N)ccc2c1 (stereo unspecified)
28 | 15 nM |  |  |  |  | CN(C)CC1CC1c1cccc2ccccc12 (stereo in doubt; 9b)

Row | SMILES | IC50 [1] | inhibition [2] | inhibition [3] | IC50 [4] | IC50 [5]
29 | CNCC1CC1c1ccc2ccccc2c1 (stereo unspecified) | 52 nM |  |  |  | 
30 | CN(C)C[C@H]1C[C@@H]1c1c[nH]c2ccc(C#N)cc12 | 0.48 nM |  |  |  | 
31 | CN(C)CC1CC1c1cnc2ccccn12 (racemic) | > 1000 nM |  |  |  | 
32 | CN(C)CC1CC1c1n[nH]c2ccc(C#N)cc12 (racemic) | 71 nM | -4.9% | 0% | > 100000 nM | 44000 nM
33 | CN(C)CC1CC1c1c[nH]c2ccc(C#N)cc12 (racemic) | 1.1 nM |  |  |  | 
34 | CN(C)C[C@H]1C[C@@H]1c1c[nH]c2ccccc12 (racemic) | 99 nM |  |  |  | 
35 | CN(C)CC1CC1c1cncc2ccccc12 (stereo unspecified) | > 1000 nM |  |  |  | 
36 | CN(C)C[C@H]1C[C@@H]1c1c[nH]c2ccc(F)cc12 (racemic) | 4.1 nM |  |  |  | 
37 | CN(C)CC1CC1c1c[nH]c2ncccc12 (racemic) | 410 nM |  |  |  | 
